Literature values as cited in patent publication US12616197B2, “Three-dimensional printing” (PERIDOT PRINT LLC, priority 2021, dated 2026).
In brackets after ≈: the same amount, converted by molar mass. Read-outs that look alike come from different tables or passages of the source.

Row | solubility in water (water) | Compound | also measured
1 |  | Cc1ncc(CO)c(CO)c1O.Cl [pyridoxine hydrochloride] | solubility in water: 200 mg/mL
2 |  | Cc1cc2nc3c(=O)[nH]c(=O)nc-3n(C[C@H](O)[C@H](O)[C@H](O)CO)c2cc1C [riboflavin] | solubility in water (water, depending on the crystal structure): 1000 mg/3,000-15,000 mL
3 | 29 mg/mL (≈ 172 mM) | Cc1ncc(CO)c(CN)c1O [pyridoxamine] | 
4 | 1000 mg/80 mL | cyanocobalamin | 
